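Tested at 5 concentrations; 48 h exposure; 96-well plates; endpoints linearly interpolated, else capped at highest concentration. GI50 marks 50% less growth. TGI: total growth inhibition.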
Tests used:
Assay in all cases: DTP human tumour cell line panel, 48 h
HOP-62 NSCLC = system: HOP-62 NSCLC
MDA-MB-435 = system: MDA-MB-435
CAKI-1 renal = system: CAKI-1 renal
ACHN renal = system: ACHN renal
NCI-H460 lung = system: NCI-H460 lung
SF-295 CNS = system: SF-295 CNS
SK-MEL-5 melanoma = system: SK-MEL-5 melanoma
RPMI-8226 leukemia = system: RPMI-8226 leukemia
MCF7 breast = system: MCF7 breast
SW-620 colon = system: SW-620 colon

Compound: N=c1c2c(=S)n(-c3ccccc3)c(=S)n(-c3ccccc3)c2nc(SCCN2CCCC2)n1-c1ccccc1
- TGI (HOP-62 NSCLC): 12.4 µM
- TGI (MDA-MB-435): 3.82 µM
- TGI (CAKI-1 renal): 3.11 µM
- TGI (ACHN renal): 3.26 µM
- TGI (NCI-H460 lung): 3.63 µM
- TGI (SF-295 CNS): 32.9 µM
- TGI (SK-MEL-5 melanoma): 12.1 µM

Compound: CCN(CC)CCN1C(=O)c2c(c3c4ccccc4[nH]c3c3ccc4ccccc4c23)C1=O
- GI50 (RPMI-8226 leukemia): 2.01 µM
- TGI (RPMI-8226 leukemia): 5.65 µM
- GI50 (MDA-MB-435): 1.77 µM
- TGI (MDA-MB-435): 3.17 µM
- GI50 (CAKI-1 renal): 1.43 µM
- TGI (CAKI-1 renal): 2.87 µM
- GI50 (MCF7 breast): 0.0836 µM
- TGI (MCF7 breast): 1.96 µM
- GI50 (SW-620 colon): 1.31 µM
- TGI (SW-620 colon): 2.97 µM
- GI50 (ACHN renal): 1.54 µM
- TGI (ACHN renal): 2.87 µM
- GI50 (NCI-H460 lung): 1.08 µM
- TGI (NCI-H460 lung): 2.44 µM
- GI50 (SF-295 CNS): 0.722 µM
- TGI (SF-295 CNS): 2.03 µM
- GI50 (SK-MEL-5 melanoma): 1.71 µM
- TGI (SK-MEL-5 melanoma): 3.12 µM

Compound: C=C(NC(=O)C(=C)NC(=O)c1csc(C2=NC3c4csc(n4)C4NC(=O)c5csc(n5)C(C(C)(O)C(C)O)NC(=O)C5CSC(=N5)/C(=C/C)NC(=O)C(C(C)O)NC(=O)c5csc(n5)C3(CC2)NC(=O)C(C)NC(=O)C(=C)NC(=O)C(C)NC(=O)C(C(C)CC)NC2C=Cc3c(C(C)O)cc(nc3C2O)C(=O)OC4C)n1)C(N)=O (stereo not drawn)
- TGI (HOP-62 NSCLC): 99.4 µM
- TGI (RPMI-8226 leukemia): 6.28 µM
- TGI (CAKI-1 renal): > 100 µM
- GI50 (MCF7 breast): 6.27 µM
- TGI (MCF7 breast): > 100 µM
- TGI (SW-620 colon): 1.62 µM
- TGI (ACHN renal): 11.7 µM
- TGI (NCI-H460 lung): 4.39 µM
- TGI (SF-295 CNS): 12.8 µM
- TGI (SK-MEL-5 melanoma): 2.58 µM

Compound: CN(C)c1ccc(/C=C(\NC(=O)c2ccccc2)C2=NC(CCC(=O)O)C(=O)O2)cc1 (stereo not drawn)
- TGI (HOP-62 NSCLC): > 50 µM
- TGI (RPMI-8226 leukemia): > 50 µM
- TGI (MDA-MB-435): > 50 µM
- TGI (CAKI-1 renal): > 50 µM
- TGI (MCF7 breast): > 50 µM
- TGI (SW-620 colon): > 50 µM
- TGI (ACHN renal): > 50 µM
- TGI (NCI-H460 lung): > 50 µM
- TGI (SF-295 CNS): > 50 µM
- TGI (SK-MEL-5 melanoma): > 50 µM

Compound: COc1cc(OC)c2c3c(OC)cc(OC)c4c(=O)c(O)c(C[C@@H](C)O)c(c5c(C[C@@H](C)O)c(O)c(=O)c1c25)c43
- TGI (HOP-62 NSCLC): > 100 µM
- TGI (MDA-MB-435): 32.1 µM
- TGI (CAKI-1 renal): 53.2 µM
- TGI (MCF7 breast): 48.6 µM
- TGI (SW-620 colon): 35.6 µM
- TGI (ACHN renal): > 100 µM
- TGI (NCI-H460 lung): > 100 µM
- TGI (SF-295 CNS): > 100 µM
- TGI (SK-MEL-5 melanoma): 28.4 µM

Compound: C=CCN(CCNS(=O)(=O)c1ccc(C)cc1)S(=O)(=O)c1ccc(C)cc1
- TGI (HOP-62 NSCLC): > 100 µM
- TGI (RPMI-8226 leukemia): 73.5 µM
- TGI (MDA-MB-435): > 100 µM
- TGI (CAKI-1 renal): > 100 µM
- TGI (MCF7 breast): > 84.2 µM
- TGI (SW-620 colon): > 100 µM
- TGI (ACHN renal): > 100 µM
- TGI (NCI-H460 lung): > 71.7 µM
- TGI (SF-295 CNS): > 100 µM
- TGI (SK-MEL-5 melanoma): 12.1 µM

Compound: CC(C)=CCc1[nH]c2ccccc2c1C1=C(O)C(=O)C(c2c(CC=C(C)C)[nH]c3ccccc23)=C(O)C1=O
- TGI (HOP-62 NSCLC): 2.61 µM
- TGI (MDA-MB-435): 2.39 µM
- TGI (CAKI-1 renal): 6.26 µM
- TGI (MCF7 breast): 9.4 µM
- TGI (SW-620 colon): 14.9 µM
- TGI (ACHN renal): 3.95 µM
- TGI (NCI-H460 lung): 3.87 µM
- TGI (SF-295 CNS): 6.5 µM
- TGI (SK-MEL-5 melanoma): 4.12 µM

Compound: CC1(C)CCC(C)(C)C1C(=O)NC(O)C(=O)O (stereo not drawn)
- TGI (HOP-62 NSCLC): > 100 µM
- TGI (RPMI-8226 leukemia): > 100 µM
- TGI (MDA-MB-435): > 100 µM
- TGI (MCF7 breast): > 100 µM
- TGI (SW-620 colon): > 100 µM
- TGI (ACHN renal): > 100 µM
- TGI (NCI-H460 lung): > 100 µM
- TGI (SK-MEL-5 melanoma): > 100 µM

Compound: CCOC(=O)NC(OC)(C(F)(F)F)C(F)(F)F
- TGI (HOP-62 NSCLC): > 100 µM
- TGI (RPMI-8226 leukemia): > 100 µM
- TGI (MDA-MB-435): > 100 µM
- TGI (CAKI-1 renal): > 100 µM
- TGI (MCF7 breast): > 100 µM
- TGI (SW-620 colon): > 100 µM
- TGI (ACHN renal): > 100 µM
- TGI (NCI-H460 lung): > 100 µM
- TGI (SF-295 CNS): > 100 µM
- TGI (SK-MEL-5 melanoma): > 100 µM

Compound: CC(=O)Nc1c(S(=O)(=O)c2ccccc2)c(C)c(C)n1Cc1ccccc1
- TGI (RPMI-8226 leukemia): > 100 µM
- TGI (MDA-MB-435): > 100 µM
- TGI (CAKI-1 renal): > 100 µM
- TGI (SW-620 colon): > 100 µM
- TGI (ACHN renal): > 100 µM
- TGI (NCI-H460 lung): > 100 µM
- TGI (SF-295 CNS): > 100 µM
- TGI (SK-MEL-5 melanoma): > 100 µM

Compound: Cc1ccc(C2=C(C#N)C(N)OC3=C2COc2ccccc23)cc1 (stereo not drawn)
- TGI (HOP-62 NSCLC): 34.9 µM
- TGI (RPMI-8226 leukemia): > 100 µM
- TGI (MDA-MB-435): > 100 µM
- TGI (MCF7 breast): > 100 µM
- TGI (SW-620 colon): > 100 µM
- TGI (ACHN renal): > 100 µM
- TGI (NCI-H460 lung): > 100 µM
- TGI (SK-MEL-5 melanoma): > 100 µM

Compound: O=C1CC(c2ccccc2)=Nc2ccccc2N1
- TGI (HOP-62 NSCLC): > 100 µM
- TGI (CAKI-1 renal): > 100 µM
- TGI (SW-620 colon): 51.8 µM
- TGI (ACHN renal): > 100 µM
- TGI (NCI-H460 lung): > 100 µM
- TGI (SF-295 CNS): > 100 µM
- TGI (SK-MEL-5 melanoma): > 100 µM

Compound: COC(=O)c1c(O)ccc2[nH]c3c(O)c4ccccc4cc3c12
- TGI (HOP-62 NSCLC): 46.7 µM
- TGI (RPMI-8226 leukemia): 44.7 µM
- TGI (MDA-MB-435): 70.7 µM
- TGI (CAKI-1 renal): 45.9 µM
- TGI (MCF7 breast): 56.2 µM
- TGI (ACHN renal): 96.3 µM
- TGI (NCI-H460 lung): 63.5 µM
- TGI (SF-295 CNS): 38.1 µM
- TGI (SK-MEL-5 melanoma): > 100 µM

Compound: O=C(NC(=O)c1cc(-c2ccccc2)n[nH]1)c1ccccc1
- TGI (HOP-62 NSCLC): > 100 µM
- TGI (MDA-MB-435): > 100 µM
- TGI (CAKI-1 renal): > 100 µM
- TGI (MCF7 breast): > 100 µM
- TGI (SW-620 colon): > 100 µM
- TGI (ACHN renal): > 100 µM
- TGI (NCI-H460 lung): > 100 µM
- TGI (SF-295 CNS): > 100 µM
- TGI (SK-MEL-5 melanoma): > 100 µM

Compound: Cc1cc(S(=O)(=O)Nc2nc3ccccc3nc2-c2ccc(Cl)cc2)c(S)cc1Cl
- TGI (HOP-62 NSCLC): 46.7 µM
- TGI (RPMI-8226 leukemia): 68.5 µM
- TGI (MDA-MB-435): 34.5 µM
- TGI (CAKI-1 renal): 36.8 µM
- TGI (MCF7 breast): 34.1 µM
- TGI (ACHN renal): 34.9 µM
- TGI (NCI-H460 lung): 29.4 µM
- TGI (SF-295 CNS): 35 µM
- TGI (SK-MEL-5 melanoma): 27 µM

Compound: Cn1cc(-c2ccc3cc(-c4ccc(CC(=O)Nc5cc(C(C)(C)C)on5)cc4)cnc3c2)cn1
- GI50 (HOP-62 NSCLC): 2.54 µM
- TGI (HOP-62 NSCLC): > 100 µM
- GI50 (RPMI-8226 leukemia): 2.34 µM
- TGI (RPMI-8226 leukemia): > 100 µM
- GI50 (MDA-MB-435): 1.43 µM
- TGI (MDA-MB-435): 3.54 µM
- GI50 (CAKI-1 renal): 0.426 µM
- TGI (CAKI-1 renal): 3.45 µM
- GI50 (MCF7 breast): 1.92 µM
- TGI (MCF7 breast): 17.8 µM
- GI50 (SW-620 colon): 1.54 µM
- TGI (SW-620 colon): 3.99 µM
- GI50 (NCI-H460 lung): 0.84 µM
- TGI (NCI-H460 lung): 2.55 µM
- GI50 (SF-295 CNS): 1.65 µM
- TGI (SF-295 CNS): 6.74 µM
- GI50 (SK-MEL-5 melanoma): 2.31 µM
- TGI (SK-MEL-5 melanoma): 6.55 µM

Compound: CC(=O)Oc1c2c(c3n(c1=O)CCCC3)C(=O)N(c1ccccc1)C2=O
- TGI (HOP-62 NSCLC): > 100 µM
- TGI (MDA-MB-435): > 100 µM
- TGI (CAKI-1 renal): > 100 µM
- TGI (MCF7 breast): > 100 µM
- TGI (SW-620 colon): > 100 µM
- TGI (ACHN renal): > 100 µM
- TGI (NCI-H460 lung): > 100 µM
- TGI (SF-295 CNS): > 100 µM
- TGI (SK-MEL-5 melanoma): > 100 µM

Compound: C=C1C(=O)O[C@@H]2[C@H](O)[C@@H](C)[C@@H]3C=CC(=O)[C@@]3(C)[C@@H](OC(=O)/C(C)=C/C)[C@H]12
- TGI (HOP-62 NSCLC): 15.3 µM
- TGI (RPMI-8226 leukemia): 0.473 µM
- TGI (CAKI-1 renal): 2.02 µM
- TGI (MCF7 breast): 5.15 µM
- TGI (SW-620 colon): 1.14 µM
- TGI (NCI-H460 lung): 1.93 µM
- TGI (SF-295 CNS): 8.34 µM
- TGI (SK-MEL-5 melanoma): 4.43 µM

Compound: COc1ccc(C2C(C#N)=C(S)N(C3OC(COC(C)=O)C(OC(C)=O)C(OC(C)=O)C3OC(C)=O)C(c3ccccc3)=C2C(C)=O)cc1 (stereo not drawn)
- TGI (HOP-62 NSCLC): > 100 µM
- TGI (RPMI-8226 leukemia): > 100 µM
- TGI (MDA-MB-435): > 100 µM
- TGI (CAKI-1 renal): > 100 µM
- TGI (MCF7 breast): > 100 µM
- TGI (ACHN renal): > 100 µM
- TGI (NCI-H460 lung): > 100 µM
- TGI (SF-295 CNS): > 100 µM
- TGI (SK-MEL-5 melanoma): > 100 µM

Compound: O=C(c1ccc(Cl)cc1)N(C(=S)N1CCN(c2ccccn2)CC1)C1CCCCC1
- TGI (HOP-62 NSCLC): > 100 µM
- TGI (RPMI-8226 leukemia): > 100 µM
- TGI (CAKI-1 renal): > 100 µM
- TGI (SW-620 colon): > 100 µM
- TGI (ACHN renal): > 100 µM
- TGI (NCI-H460 lung): > 100 µM
- TGI (SF-295 CNS): > 100 µM
- TGI (SK-MEL-5 melanoma): > 100 µM
